According to ChEMBL document CHEMBL1201862, “PubChem BioAssay data set” (2004):
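Grown in 96-well plates, cells were treated for 48 hours with each compound at five concentrations. Insufficient inhibition: endpoint recorded as highest concentration tested. Abbreviation: GI50, concentration required for 50% inhibition of growth.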 Activity calls are given as the source filed them. No stated cut-off is given here; in the data, active = GI50 up to about 1.1 µM and inactive = higher.

Assays:
Experiment in all cases: growth of human tumour cells (NCI), 48 h
786-0 = test system: 786-0
A549 = test system: A549
ACHN = test system: ACHN
CAKI-1 = test system: CAKI-1
CCRF-CEM = test system: CCRF-CEM
DLD-1 = test system: DLD-1
DMS-273 = test system: DMS-273
EKVX = test system: EKVX
HCT-116 = test system: HCT-116
HL-60 = test system: HL-60
HOP-92 = test system: HOP-92
HT-29 = test system: HT-29
IGROV-1 = test system: IGROV-1
K562 = test system: K562
KM-20L2 = test system: KM-20L2
KM12 = test system: KM12
LOX IMVI = test system: LOX IMVI
LXFL 529 = test system: LXFL 529
M14 = test system: M14
M19-MEL = test system: M19-MEL
MOLT-4 = test system: MOLT-4
NCI-H226 = test system: NCI-H226
NCI-H522 = test system: NCI-H522
OVCAR-3 = test system: OVCAR-3
RPMI-8226 = test system: RPMI-8226
SF-268 = test system: SF-268
SF-295 = test system: SF-295
SF-539 = test system: SF-539
SK-MEL-28 = test system: SK-MEL-28
SK-MEL-5 = test system: SK-MEL-5
SK-OV-3 = test system: SK-OV-3
SNB-75 = test system: SNB-75
SR = test system: SR
SW-620 = test system: SW-620
TK-10 = test system: TK-10
UACC-257 = test system: UACC-257
UACC-62 = test system: UACC-62
DMS-114 = test system: DMS-114
HCC 2998 = test system: HCC 2998
HCT-15 = test system: HCT-15
Malme-3M = test system: Malme-3M
NCI-H23 = test system: NCI-H23
OVCAR-4 = test system: OVCAR-4
OVCAR-5 = test system: OVCAR-5
OVCAR-8 = test system: OVCAR-8
RXF 393 = test system: RXF 393
SK-MEL-2 = test system: SK-MEL-2
SN12C = test system: SN12C
SNB-19 = test system: SNB-19
SNB-78 = test system: SNB-78
U-251 = test system: U-251
UO-31 = test system: UO-31

`N#CC(c1ccc(Cl)cc1)c1c(=O)[nH]c2ccc(N)cc2[n+]1[O-]` (centres undefined) was tested, and the GI50 (786-0) was > 100 µM (inactive), the GI50 (A549) was > 100 µM (inactive) and the GI50 (ACHN) was > 100 µM (inactive). For the same molecule, the GI50 (CAKI-1) was > 100 µM (inactive), the GI50 (CCRF-CEM) was > 100 µM (inactive) and the GI50 (DLD-1) was > 100 µM (inactive). For the same molecule, the GI50 (DMS-273) was > 100 µM (inactive), the GI50 (EKVX) was > 100 µM (inactive) and the GI50 (HCT-116) was > 100 µM (inactive). The GI50 (HL-60) was > 100 µM (inactive), the GI50 (HOP-92) was > 100 µM (inactive) and the GI50 (HT-29) was > 100 µM (inactive). For the same molecule, the GI50 (IGROV-1) was > 100 µM (inactive), the GI50 (K562) was > 100 µM (inactive) and the GI50 (KM-20L2) was > 100 µM (inactive). For the same molecule, the GI50 (KM12) was > 100 µM (inactive), the GI50 (LOX IMVI) was > 100 µM (inactive) and the GI50 (LXFL 529) was > 100 µM (inactive). For the same molecule, the GI50 (M14) was > 100 µM (inactive), the GI50 (M19-MEL) was > 100 µM (inactive) and the GI50 (MOLT-4) was > 100 µM (inactive). The GI50 (NCI-H226) was > 100 µM (inactive), the GI50 (NCI-H522) was > 100 µM (inactive) and the GI50 (OVCAR-3) was > 100 µM (inactive). For the same molecule, the GI50 (RPMI-8226) was > 100 µM (inactive), the GI50 (SF-268) was > 100 µM (inactive) and the GI50 (SF-295) was > 100 µM (inactive). The GI50 (SF-539) was > 100 µM (inactive), the GI50 (SK-MEL-28) was > 100 µM (inactive) and the GI50 (SK-MEL-5) was > 100 µM (inactive). The GI50 (SK-OV-3) was > 100 µM (inactive), the GI50 (SNB-75) was > 100 µM (inactive) and the GI50 (SR) was > 100 µM (inactive). For the same molecule, the GI50 (SW-620) was > 100 µM (inactive), the GI50 (TK-10) was > 100 µM (inactive) and the GI50 (UACC-257) was > 100 µM (inactive). For the same molecule, the GI50 (UACC-62) was > 100 µM (inactive).

For `COc1nc(OC)c2c(=O)oc(-c3ccccc3)cc2n1`, the GI50 (786-0) was > 100 µM (inactive), the GI50 (A549) was > 100 µM (inactive) and the GI50 (ACHN) was > 100 µM (inactive). The GI50 (CAKI-1) was > 100 µM (inactive), the GI50 (DMS-114) was > 100 µM (inactive) and the GI50 (DMS-273) was > 100 µM (inactive). The GI50 (EKVX) was > 100 µM (inactive), the GI50 (HCC 2998) was > 100 µM (inactive) and the GI50 (HCT-116) was > 100 µM (inactive). The GI50 (HCT-15) was over 100 µM, the GI50 (HOP-92) was > 100 µM (inactive) and the GI50 (HT-29) was > 100 µM (inactive). For the same molecule, the GI50 (IGROV-1) was > 100 µM (inactive), the GI50 (K562) was > 100 µM (inactive) and the GI50 (KM-20L2) was > 100 µM (inactive). For the same molecule, the GI50 (KM12) was > 100 µM (inactive), the GI50 (LXFL 529) was > 100 µM (inactive) and the GI50 (M19-MEL) was > 100 µM (inactive). The GI50 (MOLT-4) was > 100 µM (inactive), the GI50 (Malme-3M) was > 100 µM (inactive) and the GI50 (NCI-H226) was > 100 µM (inactive). For the same molecule, the GI50 (NCI-H23) was > 100 µM (inactive), the GI50 (NCI-H522) was > 100 µM (inactive) and the GI50 (OVCAR-3) was > 10 µM (inactive). For the same molecule, the GI50 (OVCAR-4) was > 100 µM (inactive), the GI50 (OVCAR-5) was > 100 µM (inactive) and the GI50 (OVCAR-8) was > 100 µM (inactive). The GI50 (RPMI-8226) was > 100 µM (inactive), the GI50 (RXF 393) was > 100 µM (inactive) and the GI50 (SF-268) was > 100 µM (inactive). The GI50 (SF-295) was > 100 µM (inactive), the GI50 (SF-539) was > 100 µM (inactive) and the GI50 (SK-MEL-28) was > 100 µM (inactive). The GI50 (SK-MEL-2) was > 100 µM (inactive), the GI50 (SK-MEL-5) was > 100 µM (inactive) and the GI50 (SK-OV-3) was > 100 µM (inactive). For the same molecule, the GI50 (SN12C) was > 100 µM (inactive), the GI50 (SNB-19) was > 100 µM (inactive) and the GI50 (SNB-75) was 53.5 µM (inactive). For the same molecule, the GI50 (SNB-78) was > 100 µM (inactive), the GI50 (SR) was > 100 µM (inactive) and the GI50 (SW-620) was > 100 µM (inactive). The GI50 (TK-10) was > 100 µM (inactive), the GI50 (U-251) was > 100 µM (inactive) and the GI50 (UACC-257) was > 100 µM (inactive). For the same molecule, the GI50 (UACC-62) was > 100 µM (inactive) and the GI50 (UO-31) was > 100 µM (inactive).
